Test results: the supplement of paper PMC10307832

Experiments:
Experiment in all cases: relative viability (nuclei count vs DMSO), 5 days (fraction); higher = more cells survive
[1] = test system: ABC-1
How it was run: (§1)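 Lung cancer cell lines were pin-tool dosed in 1536-well plates on the day after seeding, with either a lone drug or a fixed anchor-drug dose plus five library-drug doses (not always all listed) in √10 steps. Nuclei were counted on 4× images after 5 days. Relative viability is the ratio of treated-well to vehicle-well nuclei counts, with each value a median of duplicate plates.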

[2] = test system: CAL-12T
How it was run: as §1

[3] = test system: COR-L23
How it was run: as §1

[4] = test system: EMC-BAC-2
How it was run: as §1

[5] = test system: HARA
How it was run: as §1

[6] = test system: HCC-366
How it was run: as §1

[7] = test system: HOP-62
How it was run: as §1

[8] = test system: LK-2
How it was run: as §1

[9] = test system: NCI-H1437
How it was run: as §1

[10] = test system: NCI-H1563
How it was run: as §1

[11] = test system: NCI-H1650
How it was run: as §1

[12] = test system: NCI-H1651
How it was run: as §1

[13] = test system: NCI-H1734
How it was run: as §1

[14] = test system: NCI-H1755
How it was run: as §1

[15] = test system: NCI-H2347
How it was run: as §1

[16] = test system: NCI-H3122
How it was run: as §1

[17] = test system: NCI-H441
How it was run: as §1

[18] = test system: NCI-H596
How it was run: as §1

[19] = test system: NCI-H727
How it was run: as §1

[20] = test system: PC-3 [JPC-3]
How it was run: as §1

[21] = test system: RERF-LC-KJ
How it was run: as §1

[22] = test system: SK-LU-1
How it was run: as §1

[23] = test system: UMC-11
How it was run: as §1

Cc1cn(-c2cc(NC(=O)c3ccc(C)c(Nc4nccc(-c5cccnc5)n4)c3)cc(C(F)(F)F)c2)cn1 [Nilotinib] + COc1cccc2cc(-c3nc([C@H]4CC[C@H](C(=O)O)CC4)n4ncnc(N)c34)[nH]c12 [OSI-027] (partner 0.5 µM)
relative viability ([1]; first compound 0.001 µM): 0.447
relative viability ([1]; first compound 0.003162 µM): 0.479
relative viability ([1]; first compound 0.01 µM): 0.45
relative viability ([1]; first compound 0.03162 µM): 0.376
relative viability ([1]; first compound 0.1 µM): 0.237
relative viability ([2]; first compound 0.001 µM): 0.612
relative viability ([2]; first compound 0.003162 µM): 0.413
relative viability ([2]; first compound 0.01 µM): 0.426
relative viability ([2]; first compound 0.03162 µM): 0.427
relative viability ([2]; first compound 0.1 µM): 0.527
relative viability ([3]; first compound 0.001 µM): 0.622
relative viability ([3]; first compound 0.003162 µM): 0.957
relative viability ([3]; first compound 0.01 µM): 0.92
relative viability ([3]; first compound 0.03162 µM): 0.462
relative viability ([3]; first compound 0.1 µM): 0.596
relative viability ([4]; first compound 0.001 µM): 0.348
relative viability ([4]; first compound 0.003162 µM): 0.387
relative viability ([4]; first compound 0.01 µM): 0.426
relative viability ([4]; first compound 0.03162 µM): 0.345
relative viability ([4]; first compound 0.1 µM): 0.354
relative viability ([5]; first compound 0.001 µM): 0.523
relative viability ([5]; first compound 0.003162 µM): 0.633
relative viability ([5]; first compound 0.01 µM): 0.469
relative viability ([5]; first compound 0.03162 µM): 0.179
relative viability ([5]; first compound 0.1 µM): 0.231
relative viability ([6]; first compound 0.001 µM): 0.644
relative viability ([6]; first compound 0.003162 µM): 0.93
relative viability ([6]; first compound 0.01 µM): 0.663
relative viability ([6]; first compound 0.03162 µM): 0.203
relative viability ([6]; first compound 0.1 µM): 0.147
relative viability ([7]; first compound 0.001 µM): 0.699
relative viability ([7]; first compound 0.003162 µM): 0.831
relative viability ([7]; first compound 0.01 µM): 0.909
relative viability ([7]; first compound 0.03162 µM): 0.581
relative viability ([7]; first compound 0.1 µM): 0.559
relative viability ([8]; first compound 0.001 µM): 0.209
relative viability ([8]; first compound 0.003162 µM): 0.174
relative viability ([8]; first compound 0.01 µM): 0.184
relative viability ([8]; first compound 0.03162 µM): 0.178
relative viability ([8]; first compound 0.1 µM): 0.187
relative viability ([9]; first compound 0.001 µM): 0.826
relative viability ([9]; first compound 0.003162 µM): 0.815
relative viability ([9]; first compound 0.01 µM): 0.876
relative viability ([9]; first compound 0.03162 µM): 0.619
relative viability ([9]; first compound 0.1 µM): 0.902
relative viability ([10]; first compound 0.001 µM): 0.72
relative viability ([10]; first compound 0.003162 µM): 0.731
relative viability ([10]; first compound 0.01 µM): 0.681
relative viability ([10]; first compound 0.03162 µM): 0.74
relative viability ([10]; first compound 0.1 µM): 0.666
relative viability ([11]; first compound 0.001 µM): 0.691
relative viability ([11]; first compound 0.003162 µM): 0.792
relative viability ([11]; first compound 0.01 µM): 0.569
relative viability ([11]; first compound 0.03162 µM): 0.464
relative viability ([11]; first compound 0.1 µM): 0.426
relative viability ([12]; first compound 0.001 µM): 0.638
relative viability ([12]; first compound 0.003162 µM): 0.727
relative viability ([12]; first compound 0.01 µM): 0.842
relative viability ([12]; first compound 0.03162 µM): 0.508
relative viability ([12]; first compound 0.1 µM): 0.403
relative viability ([13]; first compound 0.001 µM): 0.57
relative viability ([13]; first compound 0.003162 µM): 0.595
relative viability ([13]; first compound 0.01 µM): 0.64
relative viability ([13]; first compound 0.03162 µM): 0.435
relative viability ([13]; first compound 0.1 µM): 0.261
relative viability ([14]; first compound 0.001 µM): 0.792
relative viability ([14]; first compound 0.003162 µM): 0.617
relative viability ([14]; first compound 0.01 µM): 0.74
relative viability ([14]; first compound 0.03162 µM): 0.553
relative viability ([14]; first compound 0.1 µM): 0.383
relative viability ([15]; first compound 0.001 µM): 0.512
relative viability ([15]; first compound 0.003162 µM): 0.429
relative viability ([15]; first compound 0.01 µM): 0.388
relative viability ([15]; first compound 0.03162 µM): 0.364
relative viability ([15]; first compound 0.1 µM): 0.419
relative viability ([16]; first compound 0.001 µM): 0.961
relative viability ([16]; first compound 0.003162 µM): 1.33
relative viability ([16]; first compound 0.01 µM): 1.24
relative viability ([16]; first compound 0.03162 µM): 0.66
relative viability ([16]; first compound 0.1 µM): 0.467
relative viability ([17]; first compound 0.001 µM): 0.524
relative viability ([17]; first compound 0.003162 µM): 0.743
relative viability ([17]; first compound 0.01 µM): 0.52
relative viability ([17]; first compound 0.03162 µM): 0.499
relative viability ([17]; first compound 0.1 µM): 0.483
relative viability ([18]; first compound 0.001 µM): 0.725
relative viability ([18]; first compound 0.003162 µM): 0.655
relative viability ([18]; first compound 0.01 µM): 0.57
relative viability ([18]; first compound 0.03162 µM): 0.306
relative viability ([18]; first compound 0.1 µM): 0.415
relative viability ([19]; first compound 0.001 µM): 0.57
relative viability ([19]; first compound 0.003162 µM): 0.477
relative viability ([19]; first compound 0.01 µM): 0.697
relative viability ([19]; first compound 0.03162 µM): 0.44
relative viability ([19]; first compound 0.1 µM): 0.344
relative viability ([20]; first compound 0.001 µM): 0.702
relative viability ([20]; first compound 0.003162 µM): 0.838
relative viability ([20]; first compound 0.01 µM): 0.785
relative viability ([20]; first compound 0.03162 µM): 0.703
relative viability ([20]; first compound 0.1 µM): 0.475
relative viability ([21]; first compound 0.001 µM): 0.501
relative viability ([21]; first compound 0.003162 µM): 0.586
relative viability ([21]; first compound 0.01 µM): 0.53
relative viability ([21]; first compound 0.03162 µM): 0.438
relative viability ([21]; first compound 0.1 µM): 0.374
relative viability ([22]; first compound 0.001 µM): 0.313
relative viability ([22]; first compound 0.003162 µM): 0.322
relative viability ([22]; first compound 0.01 µM): 0.302
relative viability ([22]; first compound 0.03162 µM): 0.258
relative viability ([22]; first compound 0.1 µM): 0.265
relative viability ([23]; first compound 0.001 µM): 0.482
relative viability ([23]; first compound 0.003162 µM): 0.527
relative viability ([23]; first compound 0.01 µM): 0.432
relative viability ([23]; first compound 0.1 µM): 0.246
